The target of test [1] is T1, pig TRPM8 (Sus scrofa, UniProt F1SM15).
T1 construct: expressed in transfected cells; host or cells: CHO (pcDNA5/FRT/TO vector; hygromycin B and blasticidin selection)
Put plainly: In vitro pig TRPM8 automated patch-clamp assay (SyncroPatch 384PE, CHO cells). In kind it is cell-based. Particulars: CHO cells expressing pig TRPM8, 28° C. The essentials: (§1)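 Whole-cell automated patch clamp on engineered CHO lines at 28 °C, held at −60 mV, with −80 to +80 mV ramps every 5 s; one compound concentration per well. Peak current minus pre-addition baseline was normalised to no-compound control and Emax, and EC50 was fitted; 200 μM menthol wells served as control.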
(In general: Patch clamp records ionic current or voltage across a cell membrane.)

For test [2], the system named is Male castrated German Landrace pigs. Put plainly: In vivo assay: enhancement of swallowing in anesthetized pigs (manometry with pressure probe in the mouth). The conditions noted are these: Sus scrofa, anesthetized pig, dose per pig 10 mg, injected in 1 ml vehicle into the oral cavity. Here is the method: For testing the efficacy of TRPM8 agonists for enhancing swallowing, experiment using the pig model can be conducted according to assay described below. The efficacy can be compared to a vehicle control.
Male castrated German Landrace pigs (weight range of 20 to 35 kg) were used. Anesthesia was induced by injecting 20 ml of a urethane solution (20 g/100 mL dissolved in saline) into an ear vein corresponding to a dose of around […]. Anesthesia was maintained by continuous infusion of 15-20 mL per hour of the urethane solution, which was infused into an epigastric vein, and additionally by infusion of Zoletil and Rompun (500 mg Zoletil is disssovled in 10 ml of Rompun 2%, then diluted 1:10 with saline and 3-5 mL per hour of this diluted solution. Bupivacain 0.5% JENAPHARM@ was injected for additional infiltration anesthesia. Anesthesia was monitored via pulsoximetry (ear) and regular reflex testing for pain. Body temperature was monitored and maintained by an infrared lamp.
Preparation of pigs: Swallowing responses were assessed by manometry with a pressure probe placed into the mouth of the pig. The pressure probe consisted of a plastic tube (diameter 3.3 mm) to which a small balloon was attached. The tube was advanced about 12-14 cm into the mouth related to the snout. The balloon was then inflated with air to yield a pressure of 20-30mbar (vehicle). Ideally a swallowing response with 1 ml of fluid raised this pressure by 20-50mbar which was then referred to as the swallowing pressure (the increment of this pre-set pressure in the inflated balloon after swallowing) to be further enhanced by an effective test drug.
The free end of the tube was connected to a differential pressure transducer MPX Type 399/2 (Hugo Sachs Elektronik-Harvard Apparatus) and a Hugo Sachs Plugsys-amplifier system. The biological signals were recorded by a Hugo Sachs Plugsys-amplifier system and continuously stored on a computer hard disk by an on line data acquisition and analysis system (Hem 4.2 Notocord Systems, Croissy-sur-Seine, France).
A second tube referred to as injection tube was placed dorsally to the manometer tube to enable the administration of the vehicle that induced the baseline swallowing activity, or of this same vehicle containing the test compound.
Induction and assessment of swallowing activity: 0.5h after anesthesia induction 1 ml of a fluid or the vehicle for the test drug was injected into the injection tube placed into the oral cavity. The number of swallows was counted and the highest-pressure increment was registered. Challenges with vehicle were repeated at intervals of 30 min until two consecutive vehicle challenges show an about equal swallowing response. The next challenge was the vehicle loaded with the test drug (otherwise same procedure). The efficacy of a compound to enhance swallowing as shown in Table 7 was expressed as the % increase in pressure and frequency of swallowing after administration of the compound compared to the pressure and frequency recorded for its vehicle administered just before.

The target in test [3] is T2, human TRPM8 (Homo sapiens, UniProt Q7Z2W7).
T2 construct: expressed in transfected cells; host or cells: CHO (p658 mammalian expression vector)
Description: In vitro human TRPM8 automated patch-clamp assay (SyncroPatch 384PE, CHO cells). In kind it is cell-based. The conditions noted are these: CHO cells expressing human TRPM8, 28° C. The essentials: as §1

Test [4] concerns the target T2, human TRPM8. Put plainly: In vitro human TRPM8 fluorescence calcium flux assay (recombinant CHO cells, Fluo4-AM, FDSS6000). In kind it is cell-based. Particulars: recombinant CHO cells expressing human TRPM8; menthol-related EC50, normalized to 100 μM menthol. The essentials: (§2)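 Agonist EC50 values come from sixteen-point dose responses normalized to the 100 μM menthol maximum, fitted sigmoidally. Calcium rise was followed for 3 min post-addition in recombinant CHO lines (human or pig TRPM8). Cells were dye-loaded with 2 μM Fluo4-AM, 1 h at room temperature, probenecid-containing HBSS.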

Test [5] addresses T1, pig TRPM8. Description: In vitro pig TRPM8 fluorescence calcium flux assay (recombinant CHO cells, Fluo4-AM, FDSS6000). Particulars: recombinant CHO cells expressing pig TRPM8; menthol-related EC50, normalized to 100 μM menthol. Type of test: cell-based. The essentials:
as §2
In general terms: Calcium assays in cells follow changes in intracellular calcium, usually with a dye or a luminescent sensor.

The mark [6] stands for this setting: frequency of swallowing compared with vehicle administered just before, read-out: % increase frequence vs vehicle.
Setting [7] is: swallowing pressure compared with vehicle administered just before, read-out: % increase pressure vs vehicle.

The structures appear in SMILES notation. Structures can show the parent of a compound that is named as a salt. Where two headings read alike, the source gives them in different places.

T2 sequence (Q7Z2W7 whole entry): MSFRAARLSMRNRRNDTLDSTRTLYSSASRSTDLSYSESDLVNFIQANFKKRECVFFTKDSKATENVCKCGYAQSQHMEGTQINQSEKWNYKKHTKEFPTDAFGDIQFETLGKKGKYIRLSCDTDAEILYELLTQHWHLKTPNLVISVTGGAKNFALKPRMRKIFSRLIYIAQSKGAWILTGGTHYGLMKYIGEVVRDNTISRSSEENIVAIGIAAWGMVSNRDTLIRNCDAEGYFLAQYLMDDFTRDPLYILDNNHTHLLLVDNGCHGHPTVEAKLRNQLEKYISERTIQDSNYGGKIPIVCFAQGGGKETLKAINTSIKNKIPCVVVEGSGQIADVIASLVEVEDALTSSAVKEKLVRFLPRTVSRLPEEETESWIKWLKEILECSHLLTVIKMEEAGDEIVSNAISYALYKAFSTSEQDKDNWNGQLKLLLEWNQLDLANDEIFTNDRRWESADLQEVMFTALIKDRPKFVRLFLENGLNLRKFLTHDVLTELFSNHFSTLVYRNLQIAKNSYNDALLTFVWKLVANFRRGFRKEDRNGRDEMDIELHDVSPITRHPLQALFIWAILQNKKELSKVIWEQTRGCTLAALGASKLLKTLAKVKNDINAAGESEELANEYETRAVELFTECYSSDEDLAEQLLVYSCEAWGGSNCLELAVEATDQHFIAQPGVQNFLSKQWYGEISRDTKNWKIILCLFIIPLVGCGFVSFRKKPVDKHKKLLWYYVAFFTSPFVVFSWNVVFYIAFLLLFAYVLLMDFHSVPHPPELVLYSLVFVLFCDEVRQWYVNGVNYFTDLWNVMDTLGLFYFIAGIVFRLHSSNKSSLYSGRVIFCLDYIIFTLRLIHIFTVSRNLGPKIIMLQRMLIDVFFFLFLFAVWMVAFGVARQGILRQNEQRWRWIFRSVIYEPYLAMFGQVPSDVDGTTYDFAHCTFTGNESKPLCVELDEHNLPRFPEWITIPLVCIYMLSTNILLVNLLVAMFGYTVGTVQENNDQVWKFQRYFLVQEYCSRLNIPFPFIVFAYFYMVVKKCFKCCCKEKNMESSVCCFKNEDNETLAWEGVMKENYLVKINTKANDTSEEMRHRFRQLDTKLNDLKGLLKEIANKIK
T1 sequence (F1SM15 1-1104): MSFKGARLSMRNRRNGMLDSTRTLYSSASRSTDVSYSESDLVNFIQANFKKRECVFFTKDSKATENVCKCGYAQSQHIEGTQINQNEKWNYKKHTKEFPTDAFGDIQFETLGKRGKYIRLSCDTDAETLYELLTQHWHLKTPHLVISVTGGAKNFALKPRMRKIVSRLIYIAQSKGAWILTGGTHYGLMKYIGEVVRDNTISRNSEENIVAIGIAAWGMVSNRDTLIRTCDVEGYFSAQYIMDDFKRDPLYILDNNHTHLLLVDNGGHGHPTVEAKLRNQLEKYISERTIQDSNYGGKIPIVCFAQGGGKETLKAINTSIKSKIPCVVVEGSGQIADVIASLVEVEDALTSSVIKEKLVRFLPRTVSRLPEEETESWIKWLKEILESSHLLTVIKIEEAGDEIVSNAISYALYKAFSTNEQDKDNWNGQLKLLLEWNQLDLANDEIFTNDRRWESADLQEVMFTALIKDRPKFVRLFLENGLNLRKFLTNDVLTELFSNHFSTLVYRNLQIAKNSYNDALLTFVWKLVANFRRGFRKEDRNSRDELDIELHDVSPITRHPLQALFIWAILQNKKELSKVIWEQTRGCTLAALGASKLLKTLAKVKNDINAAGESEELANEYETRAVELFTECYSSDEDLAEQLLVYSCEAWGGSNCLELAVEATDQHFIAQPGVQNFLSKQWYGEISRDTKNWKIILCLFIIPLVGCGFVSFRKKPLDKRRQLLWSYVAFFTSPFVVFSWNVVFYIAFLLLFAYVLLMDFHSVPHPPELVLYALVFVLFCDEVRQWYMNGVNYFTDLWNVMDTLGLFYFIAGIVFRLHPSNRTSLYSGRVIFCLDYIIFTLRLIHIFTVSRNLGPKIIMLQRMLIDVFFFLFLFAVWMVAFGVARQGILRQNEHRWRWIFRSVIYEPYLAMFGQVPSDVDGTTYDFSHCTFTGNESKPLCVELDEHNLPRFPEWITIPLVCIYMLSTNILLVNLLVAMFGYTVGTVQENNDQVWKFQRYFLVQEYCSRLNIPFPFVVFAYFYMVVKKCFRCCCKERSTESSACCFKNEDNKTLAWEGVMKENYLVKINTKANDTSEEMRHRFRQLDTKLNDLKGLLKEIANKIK

The EC50 is the concentration needed to bring the measured effect to its halfway point. As to `CC(C)[C@@H]1CC[C@@H](C)C[C@@]1(O)C(=O)NCCc1ccccc1OC[C@@H](O)CO` [Example 25, (1S,2S,5R)—N-(2-((S)-2,3-dihydroxypropoxy)phenethyl)-1-hydroxy-2-isopropyl-5-methylcyclohexane-1-carboxamide], the EC50 in test [1] came out at 3.4 µM; in test [3] it was 2.15 µM; in test [4], 0.0145 µM; in test [5], 0.0328 µM. Moreover, the change in vivo at 10 mg in test [2] (setting [6]) is 173%; in test [2] (setting [7]), 168%.

As for `CC(C)[C@@H]1CC[C@@H](C)C[C@@]1(O)C(=O)NCCc1ccccc1OCCCO` [Example 80, (1S,2S,5R)-1-hydroxy-N-(2-(3-hydroxypropoxy)phenethyl)-2-isopropyl-5-methylcyclohexane-1-carboxamide], the EC50 in test [1] turned out to be 3.97 µM; in test [3] it was 1.8 µM; in test [4], 0.0402 µM; in test [5] it was 0.082 µM. The change in vivo at 10 mg in test [2] (setting [6]) was 91%; in test [2] (setting [7]) it was 86%.

For the compound `CC(C)[C@@H]1CC[C@@H](C)C[C@@]1(O)C(=O)NCCc1ccccc1C(=O)OCCN` [Example 13, 2-aminoethyl 2-(2-((1S,2S,5R)-1-hydroxy-2-isopropyl-5-methylcyclohexane-1-carboxamido)ethyl) benzoate hydrochloride], the EC50 in test [1] was 0.782 µM; in test [3], 0.15 µM; in test [4] it was 0.001 µM; in test [5], 0.002 µM. For the same compound, the figures for the change in vivo at 10 mg in test [2] (setting [6]) and in test [2] (setting [7]) were 100% and 53%, respectively.

Take `CC(C)[C@@H]1CC[C@@H](C)C[C@@]1(O)C(=O)NCCc1cccc(C(=O)OCCO)c1` [Example 21, 2-hydroxyethyl 3-(2-((1S,2S,5R)-1-hydroxy-2-isopropyl-5-methylcyclohexane-1-carboxamido)ethyl) benzoate]: the EC50 in test [1] is 5.29 µM; in test [3] it was 5.5 µM; in test [4] it was 0.0651 µM; in test [5], 0.0563 µM. Besides, the change in vivo at 10 mg in test [2] (setting [6]) was 171%; in test [2] (setting [7]) it was 181%.

Consider `CC(C)[C@@H]1CC[C@@H](C)C[C@@]1(O)C(=O)NCCc1ccccc1OCC(N)=O` [Example 81, (1S,2S,5R)—N-(2-(2-amino-2-oxoethoxy)phenethyl)-1-hydroxy-2-isopropyl-5-methyl cyclohexane-1-carboxamide], for which the EC50 in test [1] worked out at 4.25 µM; in test [3], 1.5 µM; in test [4], 0.0277 µM; in test [5], 0.0252 µM. In addition, the change in vivo at 10 mg in test [2] (setting [6]) amounted to 247%; in test [2] (setting [7]) it was 315%.

Take `CC(C)[C@@H]1CC[C@@H](C)C[C@@]1(O)C(=O)NCCc1cccc(C(N)=O)c1` [Example 49, 3-(2-((1S,2S,5R)-1-hydroxy-2-isopropyl-5-methylcyclohexane-1-carboxamido)ethyl) benzamide]: the EC50 in test [1] is 1.4 µM; in test [3], 1.94 µM; in test [4] it was 0.067 µM; in test [5], 0.0242 µM. Further, the change in vivo at 10 mg in test [2] (setting [6]) was found to be 300%; in test [2] (setting [7]) it was 133%.

Take `CC(C)[C@@H]1CC[C@@H](C)C[C@@]1(O)C(=O)NCCc1ccccc1C(=O)OCCO` [Example 22, 2-hydroxyethyl 2-(2-((1S,2S,5R)-1-hydroxy-2-isopropyl-5-methylcyclohexane-1-carboxamido)ethyl) benzoate]: the EC50 in test [1] is 3.84 µM; in test [3], 3.6 µM; in test [4], 0.0252 µM; in test [5] it was 0.0345 µM. Also, the change in vivo at 10 mg was determined as 500% in test [2] (setting [6]) and 182% in test [2] (setting [7]).

As for `CC(C)[C@@H]1CC[C@@H](C)C[C@@]1(O)C(=O)NCCc1ccccc1` [Example 51, (1S,2S,5R)-1-hydroxy-2-isopropyl-5-methyl-N-phenethylcyclohexane-1-carboxamide], the EC50 in test [1] worked out at 0.823 µM; in test [3], 3.03 µM; in test [4], 0.0078 µM; in test [5], 0.0045 µM. Further, the results for the change in vivo at 10 mg in test [2] (setting [6]) and in test [2] (setting [7]) were 250% and 186%, respectively.

For `CC(C)[C@@H]1CC[C@@H](C)C[C@@]1(O)C(=O)NCCc1cccc(O)c1` [Example 40, (1S,2S,5R)-1-hydroxy-N-(3-hydroxyphenethyl)-2-isopropyl-5-methylcyclohexane-1-carboxamide], the EC50 was determined as 1.76 µM in test [1], 1.44 µM in test [3], 0.0025 µM in test [4] and 0.0014 µM in test [5]. Also, the change in vivo at 10 mg was 62% in test [2] (setting [6]) and 393% in test [2] (setting [7]).

Regarding `CC(C)[C@@H]1CC[C@@H](C)C[C@@]1(O)C(=O)NC[C@@H](NC(=O)[C@H](C)N)c1ccccc1` [Example 63, (1S,2S,5R)—N—((S)-2-((S)-2-aminopropanamido)-2-phenylethyl)-1-hydroxy-2-isopropyl-5-methylcyclohexane-1-carboxamide], the 50% effective concentration (EC50) worked out at 0.057 µM in test [1], 0.053 µM in test [3], 0.0026 µM in test [4] and 0.0057 µM in test [5]. Moreover, the change in vivo at 10 mg in test [2] (setting [6]) came to 191%; in test [2] (setting [7]), 186%.

For the compound `CC(C)[C@@H]1CC[C@@H](C)C[C@@]1(O)C(=O)NCCc1ccccc1CO` [Example 14, (1S,2S,5R)-1-hydroxy-N-(2-(hydroxymethyl)phenethyl)-2-isopropyl-5-methylcyclohexane-1-carboxamide], the EC50 in test [1] came to 3.3 µM; in test [3], 2.72 µM; in test [4], 0.0103 µM; in test [5], 0.0067 µM. The change in vivo at 10 mg in test [2] (setting [6]) is 62%; in test [2] (setting [7]), 73%.

As for `CC(C)OC(=O)CNC(=O)[C@]1(O)C[C@H](C)CC[C@H]1C(C)C` [Example 54, isopropyl ((1S,2S,5R)-1-hydroxy-2-isopropyl-5-methylcyclohexane-1-carbonyl)glycinate], the EC50 in test [1] is 8.73 µM; in test [3], 5.65 µM; in test [4], 0.226 µM; in test [5], 0.0911 µM. Moreover, the change in vivo at 10 mg was 75% in test [2] (setting [6]) and 64% in test [2] (setting [7]).

On to `CC(C)[C@@H]1CC[C@@H](C)C[C@@]1(O)C(=O)NCC1(c2ccccc2)COC1` [Example 31, (1S,2S,5R)-1-hydroxy-2-isopropyl-5-methyl-N-((3-phenyloxetan-3-yl)methyl)cyclohexane-1-carboxamide], for which the EC50 in test [1] was determined as 3.15 µM; in test [3] it was 2.08 µM; in test [4] it was 0.0104 µM; in test [5], 0.0093 µM. For the same compound, the change in vivo at 10 mg in test [2] (setting [6]) turned out to be 119%; in test [2] (setting [7]), 253%.

Take `CC(C)[C@@H]1CC[C@@H](C)C[C@@]1(O)C(=O)NCCc1ccccc1CCO` [Example 52, (1S,2S,5R)-1-hydroxy-N-(2-(2-hydroxyethyl)phenethyl)-2-isopropyl-5-methylcyclohexane-1-carboxamide]: the EC50 in test [1] came out at 0.864 µM; in test [3], 1.3 µM; in test [4], 0.026 µM; in test [5] it was 0.0243 µM. The figures for the change in vivo at 10 mg in test [2] (setting [6]) and in test [2] (setting [7]) were 172% and 202%, respectively.

Source of the values: patent US20240124408A1 (Sanofi, priority 2020, published 2024).
